Measured values taken from ChEMBL document CHEMBL3045612, “Solvent- and catalyst-free synthesis of bis-adducts of 3-formylchromone as potential antimicrobial agents” (2013).
In brackets after ≈: the same amount, converted by molar mass.

What was measured:
Klebsiella pneumoniae [1] = assay: Antibacterial activity against Klebsiella pneumoniae clinical isolate assessed as growth inhibition after 24 hr by macrodilution method; type: functional
Streptococcus pyogenes [2] = assay: Bactericidal activity against Streptococcus pyogenes after 18 to 24 hr; type: functional
Escherichia coli [3] = assay: Antibacterial activity against Escherichia coli ATCC 25922 assessed as growth inhibition after 24 hr by disk diffusion assay; type: functional
Streptococcus pyogenes [4] = assay: Antibacterial activity against Streptococcus pyogenes assessed as growth inhibition after 24 hr by macrodilution method; type: functional
Aspergillus fumigatus [5] = assay: Antifungal activity against Aspergillus fumigatus assessed as growth inhibition after 3 to 4 days by disk diffusion assay; type: functional
Klebsiella pneumoniae [6] = assay: Antibacterial activity against Klebsiella pneumoniae clinical isolate assessed as growth inhibition after 24 hr by disk diffusion assay; type: functional
[7] = tested on: Trichophyton mentagrophytes; assay: Antifungal activity against Trichophyton mentagrophytes assessed as growth inhibition after 48 hr by macrodilution method; type: functional
Streptococcus pyogenes [8] = assay: Antibacterial activity against Streptococcus pyogenes assessed as growth inhibition after 24 hr by disk diffusion assay; type: functional
Staphylococcus aureus [9] = assay: Antibacterial activity against methicillin-resistant Staphylococcus aureus assessed as growth inhibition after 24 hr by macrodilution method; type: functional
Staphylococcus aureus [10] = assay: Bactericidal activity against methicillin-resistant Staphylococcus aureus after 18 to 24 hr; type: functional
Talaromyces marneffei [11] = assay: Antifungal activity against Talaromyces marneffei assessed as growth inhibition after 3 to 4 days by disk diffusion assay; type: functional
Pseudomonas aeruginosa [12] = assay: Antibacterial activity against Pseudomonas aeruginosa ATCC 27853 assessed as growth inhibition after 24 hr by macrodilution method; type: functional; conditions: ATCC 27853, 24 h
Aspergillus fumigatus [13] = assay: Antifungal activity against Aspergillus fumigatus assessed as growth inhibition after 48 hr by macrodilution method; type: functional
Talaromyces marneffei [14] = assay: Fungicidal activity against Talaromyces marneffei after 48 hr; type: functional
Escherichia coli [15] = assay: Bactericidal activity against Escherichia coli ATCC 25922 after 18 to 24 hr; type: functional
Pseudomonas aeruginosa [16] = assay: Bactericidal activity against Pseudomonas aeruginosa ATCC 27853 after 18 to 24 hr; type: functional
Klebsiella pneumoniae [17] = assay: Bactericidal activity against Klebsiella pneumoniae clinical isolate after 18 to 24 hr; type: functional
[18] = tested on: Trichophyton mentagrophytes; assay: Antifungal activity against Trichophyton mentagrophytes assessed as growth inhibition after 3 to 4 days by disk diffusion assay; type: functional
[19] = tested on: Trichophyton mentagrophytes; assay: Fungicidal activity against Trichophyton mentagrophytes after 48 hr; type: functional
Candida albicans [20] = assay: Antifungal activity against Candida albicans assessed as growth inhibition after 48 hr by macrodilution method; type: functional
Escherichia coli [21] = assay: Antibacterial activity against Escherichia coli ATCC 25922 assessed as growth inhibition after 24 hr by macrodilution method; type: functional; conditions: ATCC 25922, 24 h
Aspergillus fumigatus [22] = assay: Fungicidal activity against Aspergillus fumigatus after 48 hr; type: functional
Candida albicans [23] = assay: Antifungal activity against Candida albicans assessed as growth inhibition after 3 to 4 days by disk diffusion assay; type: functional
Pseudomonas aeruginosa [24] = assay: Antibacterial activity against Pseudomonas aeruginosa ATCC 27853 assessed as growth inhibition after 24 hr by disk diffusion assay; type: functional
Staphylococcus aureus [25] = assay: Antibacterial activity against methicillin-resistant Staphylococcus aureus assessed as growth inhibition after 24 hr by disk diffusion assay; type: functional
Candida albicans [26] = assay: Fungicidal activity against Candida albicans after 48 hr; type: functional
Talaromyces marneffei [27] = assay: Antifungal activity against Talaromyces marneffei assessed as growth inhibition after 48 hr by macrodilution method; type: functional
Pseudomonas aeruginosa [28] = assay: microbe, parasite or virus in culture; conditions: ATCC 27853, 24 h, read-out: DIZ
Description: Antibacterial activity against Pseudomonas aeruginosa ATCC 27853 assessed as growth inhibition at 30 ug after 24 hr by halo zone test

Staphylococcus aureus [29] = assay: Antibacterial activity against methicillin-resistant Staphylococcus aureus assessed as growth inhibition at 30 ug after 24 hr by halo zone test; conditions: read-out: DIZ
Escherichia coli [30] = assay: microbe, parasite or virus in culture; conditions: ATCC 25922, 24 h, read-out: DIZ
Description: Antibacterial activity against Escherichia coli ATCC 25922 assessed as growth inhibition at 30 ug after 24 hr by halo zone test

[31] = tested on: Trichophyton mentagrophytes; assay: Antifungal activity against Trichophyton mentagrophytes assessed as growth inhibition after 3 to 4 days by halo zone test; type: functional
Candida albicans [32] = assay: Antifungal activity against Candida albicans assessed as growth inhibition after 3 to 4 days by halo zone test; type: functional
Talaromyces marneffei [33] = assay: Antifungal activity against Talaromyces marneffei assessed as growth inhibition after 3 to 4 days by halo zone test; type: functional
Aspergillus fumigatus [34] = assay: Antifungal activity against Aspergillus fumigatus assessed as growth inhibition after 3 to 4 days by halo zone test; type: functional

Structure (SMILES) | MIC (Klebsiella pneumoniae [1]) [µg/mL] | MBC (Streptococcus pyogenes [2]) [µg/mL] | diameter of the inhibition zone (DIZ) (Escherichia coli [3]) [mm] | MIC (Streptococcus pyogenes [4]) [µg/mL] | diameter of the inhibition zone (DIZ) (Aspergillus fumigatus [5]) [mm] | diameter of the inhibition zone (DIZ) (Klebsiella pneumoniae [6]) [mm] | MIC [7] [µg/mL] | diameter of the inhibition zone (DIZ) (Streptococcus pyogenes [8]) [mm] | MIC (Staphylococcus aureus [9]) [µg/mL] | MBC (Staphylococcus aureus [10]) [µg/mL] | diameter of the inhibition zone (DIZ) (Talaromyces marneffei [11]) [mm] | MIC (Pseudomonas aeruginosa [12]) [µg/mL] | MIC (Aspergillus fumigatus [13]) [µg/mL] | MFC (Talaromyces marneffei [14]) [µg/mL] | MBC (Escherichia coli [15]) [µg/mL] | MFC [19] [µg/mL] | MIC (Candida albicans [20]) [µg/mL] | MFC (Aspergillus fumigatus [22]) [µg/mL] | MFC (Candida albicans [26]) [µg/mL] | MIC (Talaromyces marneffei [27]) [µg/mL] | further results
Cc1cc2oc(=O)c(C(c3c(O)c4cc(C)c(C)cc4oc3=O)c3coc4ccccc4c3=O)c(O)c2cc1C | 12.5 (≈ 23.3 µM) | 25 (≈ 46.6 µM) | 20.8 | 12.5 (≈ 23.3 µM) | 22.1 | 19.3 | 12.5 (≈ 23.3 µM) | 21.2 | 12.5 (≈ 23.3 µM) | 25 (≈ 46.6 µM) | 14.8 | 12.5 (≈ 23.3 µM) | 12.5 (≈ 23.3 µM) | 25 (≈ 46.6 µM) | 50 (≈ 93.2 µM) | 50 (≈ 93.2 µM) | 12.5 (≈ 23.3 µM) | 25 (≈ 46.6 µM) | 25 (≈ 46.6 µM) | 12.5 (≈ 23.3 µM) | MBC (Pseudomonas aeruginosa [16]): 25 µg/mL (≈ 46.6 µM); MBC (Klebsiella pneumoniae [17]): 50 µg/mL (≈ 93.2 µM); diameter of the inhibition zone (DIZ) [18]: 19.4 mm; MIC (Escherichia coli [21]): 25 µg/mL (≈ 46.6 µM); diameter of the inhibition zone (DIZ) (Candida albicans [23]): 27.2 mm; diameter of the inhibition zone (DIZ) (Pseudomonas aeruginosa [24]): 23.3 mm; diameter of the inhibition zone (DIZ) (Staphylococcus aureus [25]): 20.7 mm
O=C(O)c1cn(C2CC2)c2cc(N3CCNCC3)c(F)cc2c1=O [CIPROFLOXACIN] |  |  |  |  |  |  |  |  |  |  |  |  |  |  |  |  |  |  |  |  | zone of inhibition at 30 µg/disc (Pseudomonas aeruginosa [28]): 32 mm; zone of inhibition at 30 µg/disc (Staphylococcus aureus [29]): 22 mm; zone of inhibition at 30 µg/disc (Escherichia coli [30]): 27 mm
Cc1[nH]n(-c2ccccc2)c(=O)c1C(c1coc2ccccc2c1=O)c1c(C)[nH]n(-c2ccccc2)c1=O | 25 (≈ 49.5 µM) | 50 (≈ 99.1 µM) | 15.5 | 25 (≈ 49.5 µM) | 20.7 | 14.5 | 25 (≈ 49.5 µM) | 16.1 | 25 (≈ 49.5 µM) | 50 (≈ 99.1 µM) | 14.3 | 25 (≈ 49.5 µM) | 25 (≈ 49.5 µM) | 100 (≈ 198 µM) | 100 (≈ 198 µM) | 50 (≈ 99.1 µM) | 25 (≈ 49.5 µM) | 50 (≈ 99.1 µM) | 50 (≈ 99.1 µM) | 25 (≈ 49.5 µM) | MBC (Pseudomonas aeruginosa [16]): 100 µg/mL (≈ 198 µM); MBC (Klebsiella pneumoniae [17]): 100 µg/mL (≈ 198 µM); diameter of the inhibition zone (DIZ) [18]: 18.1 mm; MIC (Escherichia coli [21]): 25 µg/mL (≈ 49.5 µM); diameter of the inhibition zone (DIZ) (Candida albicans [23]): 23.9 mm; diameter of the inhibition zone (DIZ) (Pseudomonas aeruginosa [24]): 13.1 mm; diameter of the inhibition zone (DIZ) (Staphylococcus aureus [25]): 15.6 mm
O=c1oc2ccccc2c(O)c1C(c1c(O)c2ccccc2oc1=O)c1coc2ccccc2c1=O | 12.5 (≈ 26 µM) | 50 (≈ 104 µM) | 22.1 | 25 (≈ 52 µM) | 16.7 | 17.3 | 25 (≈ 52 µM) | 21.5 | 25 (≈ 52 µM) | 50 (≈ 104 µM) | 13.1 | 25 (≈ 52 µM) | 25 (≈ 52 µM) | 100 (≈ 208 µM) | 50 (≈ 104 µM) | 50 (≈ 104 µM) | 25 (≈ 52 µM) | 50 (≈ 104 µM) | 100 (≈ 208 µM) | 25 (≈ 52 µM) | MBC (Pseudomonas aeruginosa [16]): 50 µg/mL (≈ 104 µM); MBC (Klebsiella pneumoniae [17]): 50 µg/mL (≈ 104 µM); diameter of the inhibition zone (DIZ) [18]: 19.3 mm; MIC (Escherichia coli [21]): 25 µg/mL (≈ 52 µM); diameter of the inhibition zone (DIZ) (Candida albicans [23]): 19.1 mm; diameter of the inhibition zone (DIZ) (Pseudomonas aeruginosa [24]): 26.4 mm; diameter of the inhibition zone (DIZ) (Staphylococcus aureus [25]): 18.1 mm
COC1=CC(=O)C[C@@H](C)[C@]12Oc1c(Cl)c(OC)cc(OC)c1C2=O [GRISEOFULVIN] |  |  |  |  |  |  | 6.25 (≈ 17.7 µM) |  |  |  |  |  | 12.5 (≈ 35.4 µM) | 25 (≈ 70.9 µM) |  | 25 (≈ 70.9 µM) | 6.25 (≈ 17.7 µM) | 12.5 (≈ 35.4 µM) | 25 (≈ 70.9 µM) | 12.5 (≈ 35.4 µM) | diameter of the inhibition zone (DIZ) [31]: 24 mm; diameter of the inhibition zone (DIZ) (Candida albicans [32]): 30 mm; diameter of the inhibition zone (DIZ) (Talaromyces marneffei [33]): 20 mm; diameter of the inhibition zone (DIZ) (Aspergillus fumigatus [34]): 27 mm
Cc1cc(O)c(C(c2c(O)cc(C)oc2=O)c2coc3ccccc3c2=O)c(=O)o1 | 25 (≈ 61.2 µM) | 50 (≈ 122 µM) | 18.6 | 25 (≈ 61.2 µM) | 21.3 | 17.2 | 25 (≈ 61.2 µM) | 19.1 | 25 (≈ 61.2 µM) | 50 (≈ 122 µM) | 14.2 | 12.5 (≈ 30.6 µM) | 12.5 (≈ 30.6 µM) | 50 (≈ 122 µM) | 50 (≈ 122 µM) | 50 (≈ 122 µM) | 12.5 (≈ 30.6 µM) | 50 (≈ 122 µM) | 50 (≈ 122 µM) | 25 (≈ 61.2 µM) | MBC (Pseudomonas aeruginosa [16]): 50 µg/mL (≈ 122 µM); MBC (Klebsiella pneumoniae [17]): 50 µg/mL (≈ 122 µM); diameter of the inhibition zone (DIZ) [18]: 17.8 mm; MIC (Escherichia coli [21]): 25 µg/mL (≈ 61.2 µM); diameter of the inhibition zone (DIZ) (Candida albicans [23]): 24.1 mm; diameter of the inhibition zone (DIZ) (Pseudomonas aeruginosa [24]): 21.2 mm; diameter of the inhibition zone (DIZ) (Staphylococcus aureus [25]): 18.5 mm
